Assays:
[1] = test system: PTEN mRNA; assay: Immunoblot of PTEN and phosphorylated Akt after GeneBloc transfection of 3Y1 cells; format: cell-based, rat
Experimental: A total of three different antisense oligonucleotides, also referred to as geneblocs herein, namely PTEN 48, PTEN 57 and PTEN 53 were transfected into rat-embryo fibroblast cell line together with a negative control comprising a randomised sequence (also referred to herein as GBC). More particularly, 3Y1 cells on 10 cm plates were transfected with 15 or 30 nM of the three different PTEN specific Geneblocs 48, 57 and 53 and with GBC. After 48 h cells were harvested and the cell extracts were analyzed by immunoblotting for the relative protein amounts of p110, Akt, phosphorylated Akt (P*-Akt) and PTEN as indicated on the right. […] The concentration dependency of the antisense oligonucleotides can be particularly well seen from the use of PTEN 57 and PTEN 53 and was confirmed by further experiments. The most powerful antisense oligonucleotide among said three antisense oligonucleotides was PTEN 53. P110 was used as a marker to reflect the loading of each of the lanes.
In the corresponding experiment PTEN 53 was used as the antisense oligonucleotide and a total of four mismatches were introduced to the particular sequence with the total length of PTEN 57 being 23 nucleotides. Again, GBC was used as a negative control. The sequence of the mismatch oligonucleotide is BucucauuTsTssCssTspl sTssTssGssTssGsscucacgaB (SEQ ID No. 33) with B representing an inverted abasic nucleotide. In addition an antisense oligonucleotide was prepared specific for the mRNA of luciferase inhibiting luciferase expression in cells engineered to express the recombinant firefly gene. The respective lane on the Western blot is designated as “luc”. The same experiment was carried out using either 30 nM or 60 nM antisense oligonucleotide. As mentioned in connection with FIG. 3, P110 serves as an internal loading standard.
Transfections were carried out in 96 well or 10-cm plates (at 30% to 50% confluency) by using various cationic lipids such as Oligofectamine, Lipofectamine (Life Technologies), NC388 (Ribozyme Pharmaceuticals, Inc., Boulder, CO), or FuGene 6 (Roche) according to the manufacturer's instructions. […] molecules, including third generation antisense molecules, were transfected by adding pre-formed 5× concentrated complex of GeneBloc and lipid in serum-free medium to cells in complete medium. The total transfection volume was 100 μl for cells plated in 96 wells and 10 ml for cells in 10 cm plates. The final lipid concentration was 0.8 to 1.2 μg/ml depending on cell density; the GeneBloc concentration is indicated in each experiment.
Cells were washed twice with cold phosphate-buffered saline and lysed at 4° C. in lysis buffer containing 20 mM Tris (pH 7.5), 137 mM NaCl, 15% (vol/vol) glycerol, 1% (vol/vol) Nonidet P-40 (NP-40), 2 mM phenylmethylsulfonyl fluoride, […], 20 mM leupeptin, 2 mM benzamidine, 1 mM sodium vanadate, 25 mM […]-glycerol phosphate, 50 mM NaF and 10 mM NaPPi. Lysates were cleared by centrifugation at 14,000× g for 5 minutes and aliquots of the lysates were analyzed for protein expression by Western-blotting: Samples were separated by SDS-PAGE and transferred to nitrocellulose-filters (Schleicher & Schuell). Filters were blocked in TBST buffer (10 mM Tris-HCl (pH 7.5), 150 mM NaCl, 0.05% (vol/vol) Tween 20, 0.5% (wt/vol) sodium azide) containing 5% (wt/vol) dried milk. The respective antibodies were added in TBST at appropriate dilutions. Bound antibody was detected using anti-mouse- or anti-rabbit-conjugated horse radish peroxidase (Transduction Laboratories, BD) in TBST, washed, and developed using the SuperSignal West Dura (Pierce) or ECL (Amersham) chemoluminescence substrates. […]
To further ensure that Akt phosphorylation is not caused by an artefact or by stress imposed through the transfection conditions we tested various negative control third generation antisense molecules (negative control GeneBlocs). […]

[2] = test system: Hela cells; assay: Cell growth on matrigel; format: cell-based, human; conditions: 48 h transfection, then 48 to 72 h on matrigel, versus control GeneBloc
From the text: More particularly, a schematic pathway with PTEN inhibiting PI-3K activity is shown which would normally phosphorylate Akt thus leading to proliferation, survival and migration of HeLa cells as a model system for PTEN +/+ cells. FIG. 9 B presents the Western immunoblot analysis of an experiment studying the influence of PTEN specific antisense oligonucleotide or a control antisense nucleotide designated as mismatch GeneBloc™. PTEN is only present in the control sample, but is absent when PTEN-specific antisense oligonucleotides are used. The successful knockdown of PTEN causes phosphorylation of Akt, indicative of induction of the signalling pathway. […] Growth on matrigel is used as a surrogate in vitro assay for metastatic or invasive cell growth. […]
Loss of PTEN function has been correlated with an increased metastatic growth potential in late stage human cancers (Cantley, L. C. and Neel, B. G. (1999). New insights into tumor suppression: PTEN suppresses tumor formation by restraining the phosphoinositide 3-kinase/AKT pathway. Proc Natl Acad Sci U S A 96, 4240-4245; Ali, I. U. (2000). Gatekeeper for endometrium: the PTEN tumor suppressor gene. J Natl Cancer Inst 92, 861-863). […] HeLa cells expressing an inducible version of a constitutively active PI 3-kinase, p110* […] were analyzed in parallel. […]

[3] = 30 nM or 60 nM, PTEN 53 versus negative control GeneBlocs
[4] = 3Y1 cells, 15 or 30 nM GeneBloc, 48 h
[5] = 3Y1 cells, 15 or 30 nM GeneBloc, 48 h, listed as PTEN GeneBloc 53

## ucuccuuTTGTTTCTGcuaacga (UCUCCUUTTGTTTCTGCUAACGA; chemistry not fully specified) [PTEN 53, third generation antisense oligonucleotide (GeneBloc) against PTEN]
[1]; [3]
  PTEN protein / PTEN mRNA degradation (immunoblot): inhibited PTEN expression
  phosphorylated Akt (P*-Akt) (immunoblot): resulted in the phosphorylation of Akt
[1]; 30 nM or 60 nM, PTEN 53 versus negative control GeneBlocs, listed as PTEN GeneBloc 53
  phosphorylated Akt (P*-Akt) (immunoblot): caused an increase in Akt phosphorylation
[1]; [4]
  PTEN protein (immunoblot): no longer present
  phosphorylated Akt (P*-Akt) (immunoblot): phosphorylated Akt could be detected
[1]; [5]
  PTEN protein (immunoblot): most efficient knock down in PTEN expression
  phosphorylated Akt (P*-Akt) (immunoblot): strongest increase in Akt phosphorylation
[1]; 3Y1 cells, 15 or 30 nM, 48 h
  ranking among the three PTEN antisense oligonucleotides: most powerful
[2]
  growth on matrigel: increased potential to form network structures on matrigel and grew better

— patent US20030135033A1, “Compounds and methods for the identification and/ or validation of a target” (priority 2002, published 2003)
